Key:
[1] = tested on: AHR (101L-hepatoma cells); experiment: Antagonism of DRE-luciferase activation by CH223191; type: cell-based, human
[2] = biological target: AHR^b isoform (C57BL/6J hepatic cytosol) (Mus musculus, UniProt P30561); conditions: read-out: IC50, competitive binding; C57BL/6J cytosol, 1 nM radioligand 125IBr2N3DpD
[3] = tested on: DBA/2J mice (AHR^d); experiment: In vivo hepatic microsomal EROD activity, DBA/2J; set-up: species or system mouse; conditions: oral 120 mg/kg, 48 hours
Experimental: (§1) We utilized the wild type rat hepatoma cell line, 5L, which harbors the high affinity AHR isoform, and our newly created AHR^d-15 cell line. […] Groups of control mice were given corn oil alone or BNF at the concentration of 120 mg/kg.
(§2) Figure 3 In Vitro dose response curves. A. Rat hepatoma cell lines bearing the murine AHR^d (AHR^d-15) or the rat AHR^b (5L) were incubated with increasing doses of TCDD in 96-well plates. After 40 hours, EROD activity was performed from whole cell lysate. (n = 3). […] (n = 3). C. Same assay as in A, with increasing doses of BNF. (n = 2). […] Following 48 hours, hepatic microsomal proteins were isolated and used for the assessment of EROD activity. Animals were treated in groups of 4. Error bars: S.D.
Hepatic microsomes were prepared by homogenizing 0.5 g of liver tissue in 5 mL of MENG buffer (25 mM buffer sodium morpholinopropane sulfonate buffer (pH 7.5) containing 0.025% (w/v) NaN3, 1 mM EGTA and 10% (v/v) glycerol). The homogenate was subjected to centrifugation at 10,000×g for 20 minutes, followed by centrifugation of the supernatant for 1 hour at 100,000×g and 4°C. The pellet was dissolved in 15 mM Tris-HCl buffer containing 250 mM sucrose (pH 8.0) and aliquots were stored at −80°C. Protein concentration was determined using the Bicinchoninic Acid Protein Assay Reagent (Pierce Biotechnology, Rockford, IL). […]

[4] = biological target: T1, murine AHR^d (Mus musculus, UniProt P30561, A375V); experiment: EROD activity in AHR^d-15 cells (rat hepatoma BP8 stably transfected with AHR^d)
T1 sequence (P30561 10-848 A375V): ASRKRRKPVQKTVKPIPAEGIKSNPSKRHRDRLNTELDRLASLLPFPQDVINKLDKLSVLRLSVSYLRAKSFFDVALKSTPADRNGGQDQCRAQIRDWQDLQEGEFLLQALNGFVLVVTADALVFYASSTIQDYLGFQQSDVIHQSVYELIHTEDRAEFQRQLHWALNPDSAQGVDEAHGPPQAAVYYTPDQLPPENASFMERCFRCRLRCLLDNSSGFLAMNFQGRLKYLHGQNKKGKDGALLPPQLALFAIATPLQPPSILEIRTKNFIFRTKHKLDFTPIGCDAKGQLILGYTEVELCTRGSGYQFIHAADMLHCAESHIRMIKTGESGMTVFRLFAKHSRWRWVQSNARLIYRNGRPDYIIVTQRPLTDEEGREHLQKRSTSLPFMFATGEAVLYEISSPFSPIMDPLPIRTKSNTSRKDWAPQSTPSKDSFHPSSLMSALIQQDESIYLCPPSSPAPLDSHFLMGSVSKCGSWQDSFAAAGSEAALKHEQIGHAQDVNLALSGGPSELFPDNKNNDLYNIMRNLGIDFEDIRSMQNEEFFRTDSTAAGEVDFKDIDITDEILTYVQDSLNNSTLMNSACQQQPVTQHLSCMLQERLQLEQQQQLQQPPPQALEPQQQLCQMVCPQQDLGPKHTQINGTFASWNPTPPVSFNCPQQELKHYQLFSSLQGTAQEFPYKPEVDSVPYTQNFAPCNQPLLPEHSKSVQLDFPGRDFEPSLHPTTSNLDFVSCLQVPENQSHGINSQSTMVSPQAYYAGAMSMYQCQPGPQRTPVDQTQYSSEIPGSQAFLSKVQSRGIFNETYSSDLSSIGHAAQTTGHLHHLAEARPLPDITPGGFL
Excerpt: The 100 “hit compounds” from the primary screen were subsequently screened for their capacity to activate the low-affinity murine AHR^d receptor isoform using the activity of the endogenous Cyp1a1 gene as a readout. To this end, we established a hepatoma cell line that expresses the AHR^d receptor isoform derived from the DBA/2J mouse. An AHR^d-expressing cell line was generated by stably transfecting the AHR^d cDNA into the rat hepatoma AHR-deficient cell line, BP8 [15]. After stable selection with G418, a subclone (AHR^d-15) was analyzed for receptor expression and function. […] To confirm that the AHR^d-15 clone expressed a functional low affinity AHR^d isoform, we examined the receptor-mediated response to the prototype agonists, TCDD and β-naphthoflavone (BNF).
To test the ability of the 100 AHR inducers to activate the AHR^d-15 cells, they were treated with each of the compounds at the dose of 1 µM, for 36 hours in 96-well plates.
as §2
The open reading frame of the AHR^d gene (PL2047) was amplified by PCR using oligos OL5127 (5′-[…]-3′) and OL5128 (5′-[…]-3′). The product was ligated into the pTARGET™ mammalian expression vector (Promega, Madison, WI). The resulting plasmid was transfected into the AHR-deficient cell line, BP8 [15], using Effectene transfection reagent (Qiagen Inc., Valencia, CA). Stable integrants were selected with 6 mg/ml of G418 for 2 weeks, beginning at 48-hours post-transfection. Clones derived from single cells were screened for their response to nanomolar doses of dioxin or micromolar doses of BNF, as measured by ethoxyresorufin O-deethylase (EROD) activity. […] The validated cell line used in these studies was designated line AHR^d-15.
(§3) High-throughput analysis of EROD activity was assayed by adapting a protocol that was described elsewhere, [63]. Briefly, cells were seeded into 96-well plates at ∼ 60% density and treated with the test compounds for 36 hours. The cells were washed with PBS and lysed with 30 µL water and a cycle of freeze-thaw. To each well, 150 µL of 50 mM Hepes buffer containing 26.7 µM dicumarol and 13.3 µM ethoxyresorufin were added. The samples were incubated at 30°C for 20 minutes, and 50 µL of 0.5 mM β-NADPH were added to initiate the reaction. Fluorescence of the resorufin product was detected using the 544 nm excitation and 590 nm emission wavelength filter set.

[5] = biological target: T2, rat AHR^b (5L) (Rattus norvegicus, UniProt P41738); experiment: EROD activity in rat hepatoma 5L cells; type: cell-based; conditions: 5L cell line, 40 hours
T2 construct: endogenous in cells; host or cells: rat hepatoma 5L cells
Experimental: as §1, §2, §3

Chain of AHR^b isoform (C57BL/6J hepatic cytosol) (P30561 10-805): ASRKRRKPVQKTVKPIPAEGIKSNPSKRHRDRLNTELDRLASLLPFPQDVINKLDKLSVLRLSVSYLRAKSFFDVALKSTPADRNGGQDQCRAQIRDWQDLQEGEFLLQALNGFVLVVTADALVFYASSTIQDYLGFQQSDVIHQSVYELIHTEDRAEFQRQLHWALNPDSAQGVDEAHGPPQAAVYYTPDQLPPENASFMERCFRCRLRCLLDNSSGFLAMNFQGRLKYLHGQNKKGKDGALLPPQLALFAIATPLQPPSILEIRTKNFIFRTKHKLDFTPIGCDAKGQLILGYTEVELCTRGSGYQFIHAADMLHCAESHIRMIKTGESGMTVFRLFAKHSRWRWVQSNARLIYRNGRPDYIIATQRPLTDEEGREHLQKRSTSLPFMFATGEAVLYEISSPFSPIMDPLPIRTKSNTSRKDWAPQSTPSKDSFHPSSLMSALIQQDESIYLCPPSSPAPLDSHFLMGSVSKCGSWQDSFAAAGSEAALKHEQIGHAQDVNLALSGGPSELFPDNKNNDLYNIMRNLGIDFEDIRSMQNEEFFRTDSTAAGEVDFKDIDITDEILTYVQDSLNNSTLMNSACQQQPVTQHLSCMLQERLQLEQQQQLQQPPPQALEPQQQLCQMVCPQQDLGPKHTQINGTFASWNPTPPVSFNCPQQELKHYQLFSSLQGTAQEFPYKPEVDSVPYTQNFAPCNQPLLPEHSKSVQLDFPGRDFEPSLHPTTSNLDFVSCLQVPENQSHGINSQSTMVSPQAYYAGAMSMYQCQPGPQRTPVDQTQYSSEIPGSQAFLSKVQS
T2 sequence (P41738 10-853): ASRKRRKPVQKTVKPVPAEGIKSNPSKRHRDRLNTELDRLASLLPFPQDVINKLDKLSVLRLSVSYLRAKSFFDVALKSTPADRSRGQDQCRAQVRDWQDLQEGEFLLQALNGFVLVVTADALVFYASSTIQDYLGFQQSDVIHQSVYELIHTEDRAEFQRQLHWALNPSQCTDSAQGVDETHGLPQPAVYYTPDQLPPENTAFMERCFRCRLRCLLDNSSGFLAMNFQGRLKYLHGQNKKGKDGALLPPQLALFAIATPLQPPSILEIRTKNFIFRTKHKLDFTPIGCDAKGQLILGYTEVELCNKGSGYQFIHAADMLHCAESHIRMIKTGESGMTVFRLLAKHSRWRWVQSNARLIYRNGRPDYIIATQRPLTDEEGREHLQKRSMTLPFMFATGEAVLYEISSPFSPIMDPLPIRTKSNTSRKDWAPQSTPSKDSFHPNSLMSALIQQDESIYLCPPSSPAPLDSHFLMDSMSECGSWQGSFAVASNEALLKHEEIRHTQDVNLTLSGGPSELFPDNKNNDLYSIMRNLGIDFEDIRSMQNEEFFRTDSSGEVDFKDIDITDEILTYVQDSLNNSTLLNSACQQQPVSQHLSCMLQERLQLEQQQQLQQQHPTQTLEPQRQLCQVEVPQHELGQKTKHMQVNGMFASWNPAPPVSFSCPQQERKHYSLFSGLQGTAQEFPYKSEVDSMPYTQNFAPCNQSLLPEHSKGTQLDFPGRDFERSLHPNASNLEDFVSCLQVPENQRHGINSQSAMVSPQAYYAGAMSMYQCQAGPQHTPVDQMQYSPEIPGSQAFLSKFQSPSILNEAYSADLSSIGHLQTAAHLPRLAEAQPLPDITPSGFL

For `Cc1ccccc1N=Nc1ccc(NC(=O)c2ccnn2C)c(C)c1` [CH223191], the “inhibition of SU5416-induced DRE activation” value ([1]; antagonist 10 µM, titration of SU5416, 4 hours) was “only a small amount of inhibition”, the “inhibition of TCDD-induced DRE activation” value ([1]; titration of antagonist with 1 nM TCDD, 4 hours) was “inhibited” and the “inhibition of SU5416-induced DRE activation” value ([1]; titration of antagonist with 100 nM SU5416, 4 hours) was “minimal inhibition”.
`c1ccc2cc3c(ccc4ccccc43)cc2c1` [1,2-Benzanthracene] showed an IC50 [2] of 13.7 nM.
For `O=c1cc(-c2ccccc2)oc2ccc3ccccc3c12` [BNF, β-naphthoflavone], the “hepatic EROD activity” value [3] was “dramatically decreased in vivo activity”, the EROD response ([4]; AHR^d-15 cell line, 40 hours) was “no response” and the “AHR-mediated response (EROD activity)” value ([4]; AHR^d-15 cells, doses as high as 10 µM, 36 hours) was “inactive”. For the same molecule, the EROD response [5] was “strong response”.

From PMC3435281 (PLoS ONE, 2012)
